Legend:
[1] = molecular target: Mitogen-activated protein kinase kinase kinase kinase 4 (Homo sapiens) (UniProt O95819); assay: Inhibition of recombinant human GST-tagged HGK catalytic domain (1 to 328 residues) expressed in baculovirus expression system at 10 uM by Z'-LYTE assay relative to control
[2] = molecular target: Tyrosine-protein kinase ABL1 (Homo sapiens) (UniProt P00519); assay: Inhibition of recombinant human His-tagged ABL1 cytoplasmic domain expressed in baculovirus expression system at 10 uM by Z'-LYTE assay relative to control
[3] = molecular target: Serine/threonine-protein kinase Chk1 (Homo sapiens) (UniProt O14757); assay: Inhibition of full length recombinant human His-tagged CHK1 expressed in baculovirus expression system at 10 uM by Z'-LYTE assay relative to control
[4] = molecular target: Casein kinase I isoform gamma-2 (Homo sapiens) (UniProt P78368); assay: Inhibition of full length recombinant human His-tagged CK1gamma2 expressed in baculovirus expression system at 10 uM by Z'-LYTE assay relative to control
[5] = molecular target: Dual specificity tyrosine-phosphorylation-regulated kinase 3 (Homo sapiens) (UniProt O43781); assay: Inhibition of full length recombinant human GST-tagged DYRK3 expressed in baculovirus expression system at 10 uM by Z'-LYTE assay relative to control
[6] = molecular target: Fibroblast growth factor receptor 1 (Homo sapiens) (UniProt P11362); assay: Inhibition of recombinant human His-tagged FGFR1 cytoplasmic domain (308 to 731 residues) expressed in baculovirus expression system at 10 uM by Z'-LYTE assay relative to control
[7] = molecular target: Receptor-type tyrosine-protein kinase FLT3 (Homo sapiens) (UniProt P36888); assay: Inhibition of recombinant human His-tagged FLT3 cytoplasmic domain (564 to 958 residues) expressed in baculovirus expression system at 10 uM by Z'-LYTE assay relative to control
[8] = molecular target: Insulin receptor (Homo sapiens) (UniProt P06213); assay: Inhibition of recombinant human GST-tagged INSR cytoplasmic domain (1011 to 1382 residues) expressed in baculovirus expression system at 10 uM by Z'-LYTE assay relative to control
[9] = molecular target: Mitogen-activated protein kinase 14 (Homo sapiens, UniProt Q16539); assay: Inhibition of full length recombinant human GST-tagged p38alpha expressed in Escherichia coli at 10 uM by Z'-LYTE assay relative to control
[10] = molecular target: Mitogen-activated protein kinase 3 (Homo sapiens) (UniProt P27361); assay: Inhibition of full length recombinant human GST-tagged ERK1 expressed in Escherichia coli at 10 uM by Z'-LYTE assay relative to control
[11] = molecular target: Platelet-derived growth factor receptor beta (Homo sapiens) (UniProt P09619); assay: Inhibition of recombinant human His-tagged PDGFRbeta cytoplasmic domain (558 to 1106 residues) expressed in baculovirus expression system at 10 uM by Z'-LYTE assay relative to control
[12] = molecular target: Proto-oncogene tyrosine-protein kinase Src (Homo sapiens) (UniProt P12931); assay: Inhibition of recombinant human C-terminal His-tagged SRC cytoplasmic domain expressed in baculovirus expression system at 10 uM by Z'-LYTE assay relative to control
[13] = molecular target: Angiopoietin-1 receptor (Homo sapiens) (UniProt Q02763); assay: Inhibition of recombinant human GST-tagged TIE2 cytoplasmic domain (817 to 1101 residues) expressed in baculovirus expression system at 10 uM by Z'-LYTE assay relative to control
Angiopoietin-1 receptor (Homo sapiens), sequence (Q02763 whole entry, the tested form may be a part): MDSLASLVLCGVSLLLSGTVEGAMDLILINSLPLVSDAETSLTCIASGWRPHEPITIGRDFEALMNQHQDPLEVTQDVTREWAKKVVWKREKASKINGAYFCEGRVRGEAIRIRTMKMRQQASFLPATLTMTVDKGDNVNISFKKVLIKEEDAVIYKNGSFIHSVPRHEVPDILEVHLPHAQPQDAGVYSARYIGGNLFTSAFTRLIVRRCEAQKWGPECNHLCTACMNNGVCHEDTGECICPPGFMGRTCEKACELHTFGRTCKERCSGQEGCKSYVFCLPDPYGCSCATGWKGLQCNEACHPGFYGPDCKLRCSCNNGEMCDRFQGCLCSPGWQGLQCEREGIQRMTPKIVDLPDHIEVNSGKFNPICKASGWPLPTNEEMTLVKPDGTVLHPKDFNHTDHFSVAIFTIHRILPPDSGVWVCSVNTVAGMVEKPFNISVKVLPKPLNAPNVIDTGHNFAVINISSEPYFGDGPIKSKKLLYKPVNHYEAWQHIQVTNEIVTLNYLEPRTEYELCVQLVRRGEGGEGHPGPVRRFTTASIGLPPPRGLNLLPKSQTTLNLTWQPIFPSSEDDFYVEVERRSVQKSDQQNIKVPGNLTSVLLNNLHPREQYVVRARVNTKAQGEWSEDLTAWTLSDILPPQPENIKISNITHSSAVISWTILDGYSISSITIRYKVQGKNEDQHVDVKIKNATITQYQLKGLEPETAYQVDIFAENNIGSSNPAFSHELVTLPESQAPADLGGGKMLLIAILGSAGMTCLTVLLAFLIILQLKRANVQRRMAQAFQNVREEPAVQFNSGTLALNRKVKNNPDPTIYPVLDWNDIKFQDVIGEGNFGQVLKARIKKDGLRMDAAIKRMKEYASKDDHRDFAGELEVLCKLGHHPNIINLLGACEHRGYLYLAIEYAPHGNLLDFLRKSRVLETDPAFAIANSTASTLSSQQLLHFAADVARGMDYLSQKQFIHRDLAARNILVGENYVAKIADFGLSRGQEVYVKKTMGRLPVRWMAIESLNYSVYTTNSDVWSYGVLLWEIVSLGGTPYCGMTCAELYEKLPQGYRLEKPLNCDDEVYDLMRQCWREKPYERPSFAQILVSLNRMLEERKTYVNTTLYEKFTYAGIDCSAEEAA

Proto-oncogene tyrosine-protein kinase Src (Homo sapiens), sequence (P12931 2-536 limits assumed): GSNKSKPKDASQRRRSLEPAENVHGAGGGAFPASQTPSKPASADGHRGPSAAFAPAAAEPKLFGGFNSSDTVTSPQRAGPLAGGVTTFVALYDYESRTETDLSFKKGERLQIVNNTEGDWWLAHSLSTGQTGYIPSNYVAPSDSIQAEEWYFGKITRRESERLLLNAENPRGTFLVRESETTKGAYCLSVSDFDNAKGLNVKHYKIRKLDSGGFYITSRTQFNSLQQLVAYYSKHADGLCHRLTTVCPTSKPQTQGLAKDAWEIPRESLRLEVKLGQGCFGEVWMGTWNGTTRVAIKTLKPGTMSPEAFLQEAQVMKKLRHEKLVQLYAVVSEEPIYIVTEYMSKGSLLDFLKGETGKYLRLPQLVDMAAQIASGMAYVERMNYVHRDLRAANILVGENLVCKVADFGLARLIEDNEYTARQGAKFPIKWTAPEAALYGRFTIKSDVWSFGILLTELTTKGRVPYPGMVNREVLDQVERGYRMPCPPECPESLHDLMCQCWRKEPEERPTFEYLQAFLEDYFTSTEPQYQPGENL
Serine/threonine-protein kinase Chk1 (Homo sapiens), sequence (O14757 whole entry, canonical isoform): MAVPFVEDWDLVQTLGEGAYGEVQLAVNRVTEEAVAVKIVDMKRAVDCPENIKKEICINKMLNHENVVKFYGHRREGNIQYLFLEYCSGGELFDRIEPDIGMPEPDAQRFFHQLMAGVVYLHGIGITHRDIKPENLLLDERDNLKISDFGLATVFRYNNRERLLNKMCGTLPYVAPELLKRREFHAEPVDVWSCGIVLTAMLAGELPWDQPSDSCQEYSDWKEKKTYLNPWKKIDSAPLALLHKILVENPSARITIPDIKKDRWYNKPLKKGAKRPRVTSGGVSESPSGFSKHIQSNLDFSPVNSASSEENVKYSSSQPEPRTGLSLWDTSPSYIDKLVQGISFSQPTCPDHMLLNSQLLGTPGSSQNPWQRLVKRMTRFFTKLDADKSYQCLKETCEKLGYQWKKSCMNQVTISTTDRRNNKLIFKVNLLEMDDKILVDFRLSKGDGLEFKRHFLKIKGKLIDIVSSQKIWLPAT
Fibroblast growth factor receptor 1 (Homo sapiens), sequence (P11362 22-822 limits assumed): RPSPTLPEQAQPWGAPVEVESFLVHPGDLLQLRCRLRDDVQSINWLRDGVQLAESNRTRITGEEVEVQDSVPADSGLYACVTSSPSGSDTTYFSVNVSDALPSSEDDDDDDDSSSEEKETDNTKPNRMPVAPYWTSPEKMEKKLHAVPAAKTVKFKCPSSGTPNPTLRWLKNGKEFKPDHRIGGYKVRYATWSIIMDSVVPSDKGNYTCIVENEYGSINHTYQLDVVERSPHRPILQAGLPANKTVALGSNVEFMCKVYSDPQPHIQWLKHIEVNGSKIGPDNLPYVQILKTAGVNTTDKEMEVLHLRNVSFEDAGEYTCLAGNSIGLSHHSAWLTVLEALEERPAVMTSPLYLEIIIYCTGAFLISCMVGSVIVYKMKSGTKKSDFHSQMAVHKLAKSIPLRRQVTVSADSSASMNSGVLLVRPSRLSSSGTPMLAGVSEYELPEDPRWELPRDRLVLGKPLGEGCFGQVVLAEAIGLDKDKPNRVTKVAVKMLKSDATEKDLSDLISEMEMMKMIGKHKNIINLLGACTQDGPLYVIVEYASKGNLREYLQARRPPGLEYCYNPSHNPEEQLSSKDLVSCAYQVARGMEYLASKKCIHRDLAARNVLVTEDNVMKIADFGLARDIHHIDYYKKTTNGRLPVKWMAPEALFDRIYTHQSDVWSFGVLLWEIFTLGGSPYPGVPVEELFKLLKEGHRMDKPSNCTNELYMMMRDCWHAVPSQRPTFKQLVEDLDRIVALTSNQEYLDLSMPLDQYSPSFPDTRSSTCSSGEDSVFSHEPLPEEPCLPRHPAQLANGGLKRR
Platelet-derived growth factor receptor beta (Homo sapiens), sequence (P09619 whole entry, the tested form may be a part): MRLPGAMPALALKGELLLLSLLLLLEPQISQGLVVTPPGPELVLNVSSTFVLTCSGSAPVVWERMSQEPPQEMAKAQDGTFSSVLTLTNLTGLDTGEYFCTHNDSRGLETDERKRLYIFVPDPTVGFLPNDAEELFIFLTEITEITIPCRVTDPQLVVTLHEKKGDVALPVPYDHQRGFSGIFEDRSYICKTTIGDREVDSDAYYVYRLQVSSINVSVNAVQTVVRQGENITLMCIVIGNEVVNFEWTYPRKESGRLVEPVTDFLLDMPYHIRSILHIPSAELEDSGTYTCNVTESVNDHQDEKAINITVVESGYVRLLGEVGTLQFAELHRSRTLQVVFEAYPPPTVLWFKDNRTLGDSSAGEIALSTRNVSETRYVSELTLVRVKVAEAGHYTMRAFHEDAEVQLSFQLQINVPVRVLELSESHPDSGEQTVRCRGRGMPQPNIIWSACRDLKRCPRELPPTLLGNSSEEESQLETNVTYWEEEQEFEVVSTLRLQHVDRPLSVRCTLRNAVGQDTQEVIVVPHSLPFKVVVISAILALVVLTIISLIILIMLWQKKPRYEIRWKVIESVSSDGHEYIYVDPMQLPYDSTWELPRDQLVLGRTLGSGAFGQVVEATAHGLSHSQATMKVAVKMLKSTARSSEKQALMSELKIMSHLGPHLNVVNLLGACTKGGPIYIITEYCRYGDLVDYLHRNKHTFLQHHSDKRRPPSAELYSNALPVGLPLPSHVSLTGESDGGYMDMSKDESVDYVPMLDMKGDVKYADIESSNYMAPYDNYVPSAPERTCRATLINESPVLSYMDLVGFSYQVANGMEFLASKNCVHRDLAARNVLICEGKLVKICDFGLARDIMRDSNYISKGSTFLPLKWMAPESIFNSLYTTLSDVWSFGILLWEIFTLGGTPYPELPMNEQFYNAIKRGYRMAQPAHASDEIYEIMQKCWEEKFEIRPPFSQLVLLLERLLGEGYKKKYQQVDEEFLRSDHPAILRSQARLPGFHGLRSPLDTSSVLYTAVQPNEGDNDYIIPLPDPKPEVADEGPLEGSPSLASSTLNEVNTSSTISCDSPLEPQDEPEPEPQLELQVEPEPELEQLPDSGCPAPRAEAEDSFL
Receptor-type tyrosine-protein kinase FLT3 (Homo sapiens), sequence (P36888 whole entry, the tested form may be a part): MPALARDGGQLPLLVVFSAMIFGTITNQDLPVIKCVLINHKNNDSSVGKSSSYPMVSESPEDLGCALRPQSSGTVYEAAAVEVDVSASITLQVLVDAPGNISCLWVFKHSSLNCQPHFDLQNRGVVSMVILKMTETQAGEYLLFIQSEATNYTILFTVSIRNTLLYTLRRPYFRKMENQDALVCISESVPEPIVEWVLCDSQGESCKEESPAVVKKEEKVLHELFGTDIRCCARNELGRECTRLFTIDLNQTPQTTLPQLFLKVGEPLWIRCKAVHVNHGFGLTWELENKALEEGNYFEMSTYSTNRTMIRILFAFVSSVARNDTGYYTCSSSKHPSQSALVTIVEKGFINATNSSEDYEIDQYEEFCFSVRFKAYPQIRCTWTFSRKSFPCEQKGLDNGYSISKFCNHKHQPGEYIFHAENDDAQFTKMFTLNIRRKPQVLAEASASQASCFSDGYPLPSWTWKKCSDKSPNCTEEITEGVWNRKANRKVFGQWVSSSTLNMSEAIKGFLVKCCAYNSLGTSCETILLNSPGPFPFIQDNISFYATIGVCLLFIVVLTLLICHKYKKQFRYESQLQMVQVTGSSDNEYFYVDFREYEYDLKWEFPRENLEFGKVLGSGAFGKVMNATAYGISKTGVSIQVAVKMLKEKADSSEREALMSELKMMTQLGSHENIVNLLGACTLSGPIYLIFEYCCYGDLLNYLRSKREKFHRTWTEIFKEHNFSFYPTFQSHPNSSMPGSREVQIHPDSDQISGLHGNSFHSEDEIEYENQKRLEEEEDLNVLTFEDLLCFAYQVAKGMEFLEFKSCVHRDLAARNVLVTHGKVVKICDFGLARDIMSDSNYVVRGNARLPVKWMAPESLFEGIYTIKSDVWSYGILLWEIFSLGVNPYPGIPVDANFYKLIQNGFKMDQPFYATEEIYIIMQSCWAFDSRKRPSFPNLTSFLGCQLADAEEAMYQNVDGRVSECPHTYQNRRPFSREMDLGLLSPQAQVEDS

- inhibition [1]: 15%
- inhibition [2]: 12%
- inhibition [3]: 3%
- inhibition [4]: 6%
- inhibition [5]: 8%
- inhibition [6]: -4%
- inhibition [7]: 6%
- inhibition [8]: 2%
- inhibition [9]: 74%
- inhibition [10]: 5%
- inhibition [11]: -1%
- inhibition [12]: 3%
- inhibition [13]: 11%
Compound: CC1=Nc2c(Sc3ccccc3)ncnc2Sc2ccccc21
